The values below are quoted from earlier work in US8648119B2, “Controlled release immunomodulator compositions and methods for the treatment of otic disorders” (Otonomy, Inc., priority 2008, dated 2014).

Series [1] has as its system patients. Conditions: three phase-III clinical trials.
The test system of series [2] is patients.
The series “lymphotoxin (TNF-β)” addresses T1, lymphotoxin (TNF-β (Homo sapiens, UniProt P01374)).
T1 sequence (P01374 35-205): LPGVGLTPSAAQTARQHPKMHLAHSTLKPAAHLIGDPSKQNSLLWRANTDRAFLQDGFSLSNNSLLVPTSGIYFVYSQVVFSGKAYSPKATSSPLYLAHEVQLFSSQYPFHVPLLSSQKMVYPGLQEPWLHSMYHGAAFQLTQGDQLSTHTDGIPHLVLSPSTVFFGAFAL

Another series deals with TNF expressing cells. Conditions: in vitro, in the presence of complement.
Series [3] deals with TNF-α production in the LPS-induced human PBMC cells. As to conditions: read-out: IC50 for inhibiting TNF-α production.
Series [4] concerns TNF-α production in the LPS-induced MonoMac-6 cells. Conditions: read-out: IC50 for inhibiting TNF-α production.
The conditions of series [5]: in vivo.
The next series addresses TACE (Homo sapiens, UniProt P78536).
For series [6], the system named is Langerhans' cells or dermal connective tissue. As to conditions: in vivo.
For series [7], the system named is mouse collagen-induced arthritis model. Conditions: 30 mg/kg dose.
Another series concerns Meniere's disease. As to conditions: infusion into the scala tympani.
For another series, the system named is rat arthritis model. Conditions: 30 mg/kg.

pIC50: −log10 of the molar value.

Sequence of TACE (P78536 215-824): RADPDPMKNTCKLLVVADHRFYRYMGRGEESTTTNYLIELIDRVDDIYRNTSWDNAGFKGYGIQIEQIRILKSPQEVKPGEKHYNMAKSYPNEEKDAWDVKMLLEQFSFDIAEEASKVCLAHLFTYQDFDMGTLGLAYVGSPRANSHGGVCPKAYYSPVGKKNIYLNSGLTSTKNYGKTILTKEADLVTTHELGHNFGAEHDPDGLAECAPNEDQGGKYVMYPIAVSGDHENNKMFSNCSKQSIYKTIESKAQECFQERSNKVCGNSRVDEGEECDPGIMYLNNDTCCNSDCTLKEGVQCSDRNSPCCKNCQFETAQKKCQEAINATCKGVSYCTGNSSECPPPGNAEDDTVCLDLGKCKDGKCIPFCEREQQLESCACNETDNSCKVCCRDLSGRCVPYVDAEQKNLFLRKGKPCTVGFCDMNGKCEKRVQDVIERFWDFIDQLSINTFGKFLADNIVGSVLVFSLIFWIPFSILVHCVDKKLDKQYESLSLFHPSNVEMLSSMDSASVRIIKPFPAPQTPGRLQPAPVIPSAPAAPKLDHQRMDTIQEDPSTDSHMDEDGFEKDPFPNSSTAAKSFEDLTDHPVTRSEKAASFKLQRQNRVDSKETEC

Turning to “onercept: a soluble TNF p55 receptor, TNF binding factor (Serono)”, in the series on patients [1], the “adverse outcome reported in phase-III clinical trials” value is “patients diagnosed with fatal sepsis”. Take `O=C(Nc1cc(Cl)cc2c1[nH]c1cnccc12)c1cccnc1` [PS-1145]: in the series on LPS-challenged mice, the “production of TNF-α” value is recorded as “reduces the production of TNF-α”. On to Adalimumab, for which the “patients developing injection site reactions (erythema and/or itching, hemorrhage, pain and/or swelling)” value in the series with patients [2] (systemic administration) is 20%. Further, the “binding or inactivation of lymphotoxin (TNF-β)” value at lymphotoxin (TNF-β) is recorded as “does not bind or inactivate lymphotoxin”. For the same compound, the “lysis of TNF expressing cells” value in the series with TNF expressing cells was “lyses TNF expressing cells in vitro”. Turning to `CC[C@H](C)[C@H](NC(=O)[C@H](CC(C)C)[C@H](C(C)C)N(O)C=O)C(=O)Nc1ccccn1` [GW3333], the pIC50 (usually −log10 of the IC50, conventionally taken in molar units) in series [3] was 6.01. `CC(C)C[C@@H](C(=O)N[C@@H](CCCN/C(N)=N/[N+](=O)[O-])C(=O)Nc1nccs1)[C@H](C(C)C)N(O)C=O` [Nitroarginine analog A]: the pIC50 in series [4] is 7.47; at TACE it was 8.40. Moreover, in series [5], the oral activity result was “lacks oral activity”. As for `C=CC[C@@H]1/C=C(\C)C[C@H](C)C[C@H](OC)[C@H]2O[C@@](O)(C(=O)C(=O)N3CCCC[C@H]3C(=O)O[C@H](/C(C)=C/[C@@H]3CC[C@@H](O)[C@H](OC)C3)[C@H](C)[C@@H](O)CC1=O)[C@H](C)C[C@@H]2OC` (relative stereo) [tacrolimus, [3S-[3R*[E(1S*,3S*,4S*)], 4S*,5R*,8S*,9E,12R*,14R*,15S*,16R*,18S*,19S*,26aR*]]-5,6,8,11,12,13,14,15,16,17,18,19,24,25,26,26a-hexadecahydro-5,19-dihydroxy-3-[2-(4-hydroxy-3-methoxycyclohexyl)-1-methylethenyl]-14,16-dimethoxy-4,10,12,18-tetramethyl-8-(2-propenyl)-15,19-epoxy-3H-pyrido[2,1-39c][1,4]oxaazacyclotricosine-1,7,20,21 (4H,23H)-tetrone monohydrate], the “bioavailability after topical application” value is reported as “less than 0.5%” and the “systemic exposure after topical application” value is on record as “very little, if any, systemic exposure”. Besides, in series [6], the “atrophy of the skin” value was “do not cause atrophy of the skin” and the “suppression of Langerhans' cells or dermal connective tissue” value was “do not suppress Langerhans' cells or dermal connective tissue”. Turning to etanercept, in the series on patients [2] (systemically treated), the “patients experiencing injection site reactions (mild to moderate erythema and/or itching, pain and/or swelling)” value is given as “over one-third of patients”. For `Cc1ccc2nc(NCCN)c3ncc(C)n3c2c1` [BMS-345541], the severity of disease entry in [7] is “significantly reduced the severity of disease”. As to `CC[C@@H]1/C=C(\C)C[C@H](C)C[C@H](OC)[C@H]2O[C@@](O)(C(=O)C(=O)N3CCCC[C@H]3C(=O)O[C@H](/C(C)=C/[C@@H]3CC[C@H](Cl)[C@H](OC)C3)[C@H](C)[C@@H](O)CC1=O)[C@H](C)C[C@@H]2OC` [pimecrolimus, (1R,9S,12S,13R,14S,17R,18E,21S,23S,24R,25S,27R)-12-[(1E)-2-{(1R,3R,4S)-4-chloro-3-methoxycyclohexyl}-1-methylvinyl]-17-ethyl-1,14-dihydroxy-23,25-dimethoxy-13,19,21,27-tetramethyl-11,28-dioxa-4-aza-tricyclo[22.3.1.04,9]octacos-18-ene-2,3,10,16-tetraone], the “systemic exposure after topical application” value is “very little, if any, systemic exposure”. For the same compound, in series [6], the “atrophy of the skin” value was “do not cause atrophy of the skin” and the “suppression of Langerhans' cells or dermal connective tissue” value was “do not suppress Langerhans' cells or dermal connective tissue”.

As to `Cc1ccccc1C(=O)Nc1ccc(C(=O)N2CCCC(N(C)C)c3ccccc32)cc1` (centres unmarked) [OPC-31260], the “Meniere's disease symptoms” value with Meniere's disease is “marked reduction of Meniere's disease symptoms”. As for `COc1cccc2nc(-c3cccs3)nc(NN3C(=O)C=C(C)C3=O)c12` [SPC-839], in the series on rat arthritis model, the paw edema entry is recorded as “reduces paw edema”.
